Test system: MCF7 multi-cell spheroids with HUVEC/MSC, viability
Assay: Anticancer human tumor MCF7 cell line growth inhibition [IpAb];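 also: spheroids exposed to agents for seven days before readout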
Details: for viability, T/C: stronger effect = lower value; for IC50: curve of first compound
Excerpt: Combinatorial screen of targeted agents with ipatasertib and abemaciclib in multi-cell type tumor spheroids
A high-throughput screen of multi-cell type tumor spheroids was designed to identify active combinations of targeted small molecules and ipatasertib or abemaciclib. Complex spheroids include a stromal component modeled by human endothelial cells (HUVEC) and fibroblasts modeled by human mesenchymal stem cells (MSCs). The concentration ranges selected for each drug and investigational agent were based upon clinically achievable concentrations if the clinical Cmax of the agent was known.
Compounds. The drugs and investigational agents: ipatasertib (NSC767898), abemaciclib(NSC768073), selumetinib (NSC741078), trametinib (758246), adavosertib (NSC754352), everolimus (NSC733504), sapanisertib (NSC764658), vemurafenib (NSC761431), venetoclax (NSC766270), copanlisib (NSC809693), apelisib (NSC765974), palbociblib (NSC758247), vemurafenib (NSC761431), dabrafenib (NSC764134), ravoxertinib (NSC781343), BMS-387032 (NSC767048), sotorasib (NSC818433), talazoparib (NSC767125) and afursertib (NSC778305), were obtained from the National Cancer Institute (NCI) Developmental Therapeutics Program Chemical Repository. The FDA-approved anticancer drug set is available from the NCI Developmental Therapeutics Program. […] The stock solutions were prepared in dimethyl sulfoxide (DMSO, Sigma-Aldrich, St. Louis, MO, cat. D2650) at 800-fold the tested concentration and stored at -70 degrees C prior to their use. All drugs and investigational agents were tested over a range starting from a high concentration at or near the clinical Cmax and decreasing in half-log increments. If the clinical Cmax for an agent had not been determined, the highest concentration tested was 10 microM.
NCI60 Cell Culture. NCI60 cell lines were obtained from the NCI Developmental Therapeutics Program Tumor Repository. For each lot of cells, the Repository performed Applied Biosystems AmpFLSTR Identifiler testing with PCR amplification to confirm consistency with the published Identifier STR profile for each cell line. Cells were kept in continuous culture for no more than 20 passages. The optimal seeding densities for each of the cell lines at each time point assessed were determined prior to performing the concentration response studies. Briefly, the NCI60 human tumor lines were grown as monolayers in RPMI 1640 medium supplemented with 10% FBS and 2 mmol/L L-glutamine.
An additional 9 lines were from the NCI60 cell line panel including MDA-MB-231 breast carcinoma, MDA-MB-468 breast carcinoma, MCF7 breast carcinoma, Hs578T breast carcinoma, MALME-3M melanoma, SK-MEL-2 melanoma, SK-OV-3 ovarian carcinoma, DU-145 prostate carcinoma, PC-3 prostate carcinoma, all cell lines along with major genetic alterations are listed on Table 2. Pooled donor human umbilical vein endothelial cells (HUVEC, Lonza, cat. CC-2519) and human mesenchymal stem cells (hMSC, Lonza, cat. PT-2501) were purchased from Lonza (Walkersville, MD).
PDMR cell lines were grown in complete medium (DC medium): Dulbecco's modified Eagle's medium (DMEM)/F12 supplemented with 5% fetal bovine serum (FBS), 2 mM L-glutamine, 100 U/mL penicillin and 100 µg/ml streptomycin, 0.4 µg/ml hydrocortisone, 10 ng/ml epidermal growth factor (EGF) recombinant human protein, 24 µg/mL adenine, and 0.1 mg/mL primocin. During culture from frozen stock vials, PDMR cells were cultured in the same medium containing 10 µM Y-27632 (see Table 3). The PDCs were cultured in complete DMEM/F12 media without 10 microM Y-27632 dihydrochloride for at least two passages prior to the screen. The pooled donor HUVEC and hMSC were cultured in endothelial cell growth medium 2 (PromoCell, Heidelberg, Germany, cat. C-22011) and mesenchymal stem cell growth medium 2 (PromoCell, cat. C-28009), respectively. For all experiments, HUVEC and hMSC were used at passages </=5.
[…]

[1] = second compound 0.1 µM, first compound 0.0316 µM
[2] = second compound 0.1 µM, first compound 0.1 µM
[3] = second compound 0.316 µM, first compound 0.0316 µM
[4] = second compound 0.316 µM, first compound 0.1 µM
[5] = second compound 1 µM, first compound 0.0316 µM
[6] = second compound 1 µM, first compound 0.1 µM
[7] = second compound 3.16 µM, first compound 0.0316 µM
[8] = second compound 3.16 µM, first compound 0.1 µM
[9] = second compound 10 µM, first compound 0.0316 µM
[10] = second compound 10 µM, first compound 0.1 µM

With `CC(C)NCC(C(=O)N1CCN(c2ncnc3c2C(C)CC3O)CC1)c1ccc(Cl)cc1` (centres undefined) the viability, T/C (compound 0.1 µM) was 86.9% [middle of 13 runs], the viability, T/C (compound 0.316 µM) was 75.5% [middle of 13 runs] and the viability, T/C (compound 1 µM) was 65.3% [middle of 13 runs]. The viability, T/C (compound 3.16 µM) was 54.2% [middle of 13 runs].

`C=CCn1c(=O)c2cnc(Nc3ccc(N4CCN(C)CC4)cc3)nc2n1-c1cccc(C(C)(C)O)n1` + CC(C)NCC(C(=O)N1CCN(c2ncnc3c2C(C)CC3O)CC1)c1ccc(Cl)cc1 gave an IC50 (second compound 0.1 µM) of 543 nM, an IC50 (second compound 0.316 µM) of 367 nM and an IC50 (second compound 1 µM) of 169 nM. The IC50 (second compound 3.16 µM) was less than 31.6 nM, the IC50 (second compound 10 µM) was less than 31.6 nM and the viability, T/C [1] was 89.1%. It also gave a viability, T/C [2] of 99.2%, a viability, T/C (second compound 0.1 µM, first compound 0.316 µM) of 67.4% and a viability, T/C (second compound 0.1 µM, first compound 1 µM) of 31.8%. For the same compound, the viability, T/C (second compound 0.1 µM, first compound 3.16 µM) was 26.3%, the viability, T/C (second compound 0.1 µM, first compound 10 µM) was 33% and the viability, T/C [3] was 77.8%. It also gave a viability, T/C [4] of 80.9%, a viability, T/C (second compound 0.316 µM, first compound 0.316 µM) of 49.4% and a viability, T/C (second compound 0.316 µM, first compound 1 µM) of 37.4%. For the same compound, the viability, T/C (second compound 0.316 µM, first compound 3.16 µM) was 23.2%, the viability, T/C (second compound 0.316 µM, first compound 10 µM) was 27% and the viability, T/C [5] was 64.2%. For the same compound, the viability, T/C [6] was 61.6%, the viability, T/C (second compound 1 µM, first compound 0.316 µM) was 36.5% and the viability, T/C (second compound 1 µM, first compound 1 µM) was 20.9%. It also gave a viability, T/C (second compound 1 µM, first compound 3.16 µM) of 17.7%, a viability, T/C (second compound 1 µM, first compound 10 µM) of 16.4% and a viability, T/C [7] of 49.6%. The viability, T/C [8] was 38.2%, the viability, T/C (second compound 3.16 µM, first compound 0.316 µM) was 25.5% and the viability, T/C (second compound 3.16 µM, first compound 1 µM) was 14.6%. The viability, T/C (second compound 3.16 µM, first compound 3.16 µM) was 11.2%, the viability, T/C (second compound 3.16 µM, first compound 10 µM) was 7.69% and the viability, T/C [9] was 42.4%. It also gave a viability, T/C [10] of 33.2%, a viability, T/C (second compound 10 µM, first compound 0.316 µM) of 19.4% and a viability, T/C (second compound 10 µM, first compound 1 µM) of 10.6%. It also gave a viability, T/C (second compound 10 µM, first compound 3.16 µM) of 8.49% and a viability, T/C (second compound 10 µM, first compound 10 µM) of 4.08%.

In the case of `CC(C)n1nc(-c2ccc3oc(N)nc3c2)c2c(N)ncnc21` + CC(C)NCC(C(=O)N1CCN(c2ncnc3c2C(C)CC3O)CC1)c1ccc(Cl)cc1, the IC50 (second compound 0.1 µM) is reported as 13.9 nM, the IC50 (second compound 0.316 µM) is reported as 8.42 nM and the IC50 (second compound 1 µM) is reported as 2.59 nM. For the same compound, the IC50 (second compound 3.16 µM) was 0.594 nM, the IC50 (second compound 10 µM) was less than 0.316 nM and the viability, T/C (second compound 0.1 µM, first compound 0.000316 µM) was 88.7%. The viability, T/C (second compound 0.1 µM, first compound 0.001 µM) was 92.6%, the viability, T/C (second compound 0.1 µM, first compound 0.00316 µM) was 77.4% and the viability, T/C (second compound 0.1 µM, first compound 0.01 µM) was 58.9%. The viability, T/C [1] was 29.5%, the viability, T/C [2] was 13.1% and the viability, T/C (second compound 0.316 µM, first compound 0.000316 µM) was 82.5%. For the same compound, the viability, T/C (second compound 0.316 µM, first compound 0.001 µM) was 85.9%, the viability, T/C (second compound 0.316 µM, first compound 0.00316 µM) was 65.4% and the viability, T/C (second compound 0.316 µM, first compound 0.01 µM) was 50.3%. It also gave a viability, T/C [3] of 17.9%, a viability, T/C [4] of 9.55% and a viability, T/C (second compound 1 µM, first compound 0.000316 µM) of 77.5%. The viability, T/C (second compound 1 µM, first compound 0.001 µM) was 64.8%, the viability, T/C (second compound 1 µM, first compound 0.00316 µM) was 48.4% and the viability, T/C (second compound 1 µM, first compound 0.01 µM) was 21.1%. It also gave a viability, T/C [5] of 8.63%, a viability, T/C [6] of 6.29% and a viability, T/C (second compound 3.16 µM, first compound 0.000316 µM) of 56.1%. The viability, T/C (second compound 3.16 µM, first compound 0.001 µM) was 42.6%, the viability, T/C (second compound 3.16 µM, first compound 0.00316 µM) was 36.5% and the viability, T/C (second compound 3.16 µM, first compound 0.01 µM) was 9.09%. The viability, T/C [7] was 6.78%, the viability, T/C [8] was 7.35% and the viability, T/C (second compound 10 µM, first compound 0.000316 µM) was 48.4%. The viability, T/C (second compound 10 µM, first compound 0.001 µM) was 45.5%, the viability, T/C (second compound 10 µM, first compound 0.00316 µM) was 17.5% and the viability, T/C (second compound 10 µM, first compound 0.01 µM) was 8.22%. The viability, T/C [9] was 8.47% and the viability, T/C [10] was 6.95%.

Work on `Cn1cnc2c(F)c(Nc3ccc(Br)cc3Cl)c(C(=O)NOCCO)cc21` + CC(C)NCC(C(=O)N1CCN(c2ncnc3c2C(C)CC3O)CC1)c1ccc(Cl)cc1 yielded an IC50 (second compound 0.1 µM) greater than 3000 nM, an IC50 (second compound 0.316 µM) greater than 3000 nM and an IC50 (second compound 1 µM) of 1410 nM. For the same compound, the IC50 (second compound 3.16 µM) was less than 9.49 nM, the IC50 (second compound 10 µM) was less than 9.49 nM and the viability, T/C (second compound 0.1 µM, first compound 0.00949 µM) was 87.8%. The viability, T/C (second compound 0.1 µM, first compound 0.03 µM) was 89.6%, the viability, T/C (second compound 0.1 µM, first compound 0.0949 µM) was 92.5% and the viability, T/C (second compound 0.1 µM, first compound 0.3 µM) was 86.2%. It also gave a viability, T/C (second compound 0.1 µM, first compound 0.949 µM) of 95%, a viability, T/C (second compound 0.1 µM, first compound 3 µM) of 82.5% and a viability, T/C (second compound 0.316 µM, first compound 0.00949 µM) of 80.8%. For the same compound, the viability, T/C (second compound 0.316 µM, first compound 0.03 µM) was 86.2%, the viability, T/C (second compound 0.316 µM, first compound 0.0949 µM) was 89.8% and the viability, T/C (second compound 0.316 µM, first compound 0.3 µM) was 77.9%. The viability, T/C (second compound 0.316 µM, first compound 0.949 µM) was 82.5%, the viability, T/C (second compound 0.316 µM, first compound 3 µM) was 67% and the viability, T/C (second compound 1 µM, first compound 0.00949 µM) was 58.7%. It also gave a viability, T/C (second compound 1 µM, first compound 0.03 µM) of 73.4%, a viability, T/C (second compound 1 µM, first compound 0.0949 µM) of 67.4% and a viability, T/C (second compound 1 µM, first compound 0.3 µM) of 50.9%. The viability, T/C (second compound 1 µM, first compound 0.949 µM) was 54.4%, the viability, T/C (second compound 1 µM, first compound 3 µM) was 44.7% and the viability, T/C (second compound 3.16 µM, first compound 0.00949 µM) was 43%. It also gave a viability, T/C (second compound 3.16 µM, first compound 0.03 µM) of 48.5%, a viability, T/C (second compound 3.16 µM, first compound 0.0949 µM) of 43.5% and a viability, T/C (second compound 3.16 µM, first compound 0.3 µM) of 38.4%. For the same compound, the viability, T/C (second compound 3.16 µM, first compound 0.949 µM) was 40.8%, the viability, T/C (second compound 3.16 µM, first compound 3 µM) was 31.3% and the viability, T/C (second compound 10 µM, first compound 0.00949 µM) was 30.7%. For the same compound, the viability, T/C (second compound 10 µM, first compound 0.03 µM) was 41.4%, the viability, T/C (second compound 10 µM, first compound 0.0949 µM) was 37.5% and the viability, T/C (second compound 10 µM, first compound 0.3 µM) was 34.8%. It also gave a viability, T/C (second compound 10 µM, first compound 0.949 µM) of 35.5% and a viability, T/C (second compound 10 µM, first compound 3 µM) of 27.5%.

Source: PubChem BioAssay AID2060329 (Molecular Pharmacology Branch, DTP, NCI, 2025)
